Data published in ChEMBL document CHEMBL2331222, “Discovery of novel inhibitors of signal transducer and activator of transcription 3 (STAT3) signaling pathway by virtual screening” (Eur J Med Chem, 2013).
The source made the active and inactive calls. The calls are words filed in the database; no cut-off is given here.

What was measured:
[1] = molecular target: T1, Signal transducer and activator of transcription 3 (Homo sapiens, UniProt P40763); assay: Inhibition of STAT3 in IL-6-stimulated human HepG2 cells at 10 uM treated for 1 hr prior to IL-6 challenge measured after 5.5 hrs by luciferase reporter gene assay; assay type: cell-based
T1 sequence (P40763 whole entry): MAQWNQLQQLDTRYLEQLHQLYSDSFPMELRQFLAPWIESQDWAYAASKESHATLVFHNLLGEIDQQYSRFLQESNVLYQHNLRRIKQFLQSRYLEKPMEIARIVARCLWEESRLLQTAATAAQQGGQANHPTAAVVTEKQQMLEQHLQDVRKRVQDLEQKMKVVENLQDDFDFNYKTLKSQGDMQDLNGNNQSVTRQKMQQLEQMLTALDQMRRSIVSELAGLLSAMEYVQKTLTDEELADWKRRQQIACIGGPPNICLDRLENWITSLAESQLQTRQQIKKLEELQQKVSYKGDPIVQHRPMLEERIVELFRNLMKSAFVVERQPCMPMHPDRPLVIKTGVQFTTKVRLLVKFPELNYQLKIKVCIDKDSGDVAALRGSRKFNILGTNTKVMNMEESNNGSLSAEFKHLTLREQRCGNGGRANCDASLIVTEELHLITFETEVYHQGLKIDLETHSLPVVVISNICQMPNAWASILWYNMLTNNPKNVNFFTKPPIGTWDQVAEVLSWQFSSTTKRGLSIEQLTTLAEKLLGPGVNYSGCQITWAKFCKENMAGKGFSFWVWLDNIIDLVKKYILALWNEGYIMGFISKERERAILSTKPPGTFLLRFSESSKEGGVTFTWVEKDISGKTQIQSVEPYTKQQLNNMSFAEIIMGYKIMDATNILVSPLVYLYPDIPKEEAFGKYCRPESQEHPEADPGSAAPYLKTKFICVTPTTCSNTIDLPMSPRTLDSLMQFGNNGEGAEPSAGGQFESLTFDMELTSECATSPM

MDA-MB-468 [2] = assay: Cytotoxicity against human MDA-MB-468 cells harboring constitutively harboring activated STAT3 assessed as inhibition of cell viability at 10 uM after 72 hrs by MTT assay; assay type: functional; conditions: MDA-MB-468, 72 h
Homo sapiens = organism: Homo sapiens; assay: Inhibition of TNF-alpha-stimulated NF-kappaB (unknown origin) activity at 10 uM
[3] = molecular target: T2, Signal transducer and activator of transcription 1-alpha/beta (Homo sapiens) (UniProt P42224); assay: Inhibition of IFN-gamma-stimulated STAT1 (unknown origin) activity at 10 uM
T2 sequence (whole entry): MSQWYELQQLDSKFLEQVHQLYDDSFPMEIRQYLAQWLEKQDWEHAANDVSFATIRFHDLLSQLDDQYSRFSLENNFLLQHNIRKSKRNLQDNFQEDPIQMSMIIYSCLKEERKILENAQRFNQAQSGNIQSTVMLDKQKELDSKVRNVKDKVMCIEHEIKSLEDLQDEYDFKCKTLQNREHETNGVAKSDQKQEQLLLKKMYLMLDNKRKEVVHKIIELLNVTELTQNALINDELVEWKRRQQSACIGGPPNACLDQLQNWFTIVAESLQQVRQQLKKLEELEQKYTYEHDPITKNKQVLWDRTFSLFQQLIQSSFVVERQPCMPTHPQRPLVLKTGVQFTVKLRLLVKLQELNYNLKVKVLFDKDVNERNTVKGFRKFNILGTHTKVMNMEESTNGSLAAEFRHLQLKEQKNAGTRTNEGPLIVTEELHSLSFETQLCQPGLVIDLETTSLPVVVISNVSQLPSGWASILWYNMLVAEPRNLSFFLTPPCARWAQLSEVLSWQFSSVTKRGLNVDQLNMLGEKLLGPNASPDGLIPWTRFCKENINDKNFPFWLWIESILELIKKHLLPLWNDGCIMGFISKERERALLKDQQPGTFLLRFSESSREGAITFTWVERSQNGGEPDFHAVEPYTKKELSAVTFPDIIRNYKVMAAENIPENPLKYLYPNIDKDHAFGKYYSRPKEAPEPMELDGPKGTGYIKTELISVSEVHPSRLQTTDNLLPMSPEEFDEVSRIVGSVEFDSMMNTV

[4] = molecular target: Tyrosine-protein kinase JAK2 (Homo sapiens) (UniProt O60674); assay: Effect on JAK2 phosphorylation in IL-6 stimulated human HepG2 cells at 50 uM treated for 6 hrs before IL-6 stimulation measured after 15 mins by Western blot analysis; assay type: cell-based
Sequence of Tyrosine-protein kinase JAK2 (Homo sapiens) (O60674 whole entry): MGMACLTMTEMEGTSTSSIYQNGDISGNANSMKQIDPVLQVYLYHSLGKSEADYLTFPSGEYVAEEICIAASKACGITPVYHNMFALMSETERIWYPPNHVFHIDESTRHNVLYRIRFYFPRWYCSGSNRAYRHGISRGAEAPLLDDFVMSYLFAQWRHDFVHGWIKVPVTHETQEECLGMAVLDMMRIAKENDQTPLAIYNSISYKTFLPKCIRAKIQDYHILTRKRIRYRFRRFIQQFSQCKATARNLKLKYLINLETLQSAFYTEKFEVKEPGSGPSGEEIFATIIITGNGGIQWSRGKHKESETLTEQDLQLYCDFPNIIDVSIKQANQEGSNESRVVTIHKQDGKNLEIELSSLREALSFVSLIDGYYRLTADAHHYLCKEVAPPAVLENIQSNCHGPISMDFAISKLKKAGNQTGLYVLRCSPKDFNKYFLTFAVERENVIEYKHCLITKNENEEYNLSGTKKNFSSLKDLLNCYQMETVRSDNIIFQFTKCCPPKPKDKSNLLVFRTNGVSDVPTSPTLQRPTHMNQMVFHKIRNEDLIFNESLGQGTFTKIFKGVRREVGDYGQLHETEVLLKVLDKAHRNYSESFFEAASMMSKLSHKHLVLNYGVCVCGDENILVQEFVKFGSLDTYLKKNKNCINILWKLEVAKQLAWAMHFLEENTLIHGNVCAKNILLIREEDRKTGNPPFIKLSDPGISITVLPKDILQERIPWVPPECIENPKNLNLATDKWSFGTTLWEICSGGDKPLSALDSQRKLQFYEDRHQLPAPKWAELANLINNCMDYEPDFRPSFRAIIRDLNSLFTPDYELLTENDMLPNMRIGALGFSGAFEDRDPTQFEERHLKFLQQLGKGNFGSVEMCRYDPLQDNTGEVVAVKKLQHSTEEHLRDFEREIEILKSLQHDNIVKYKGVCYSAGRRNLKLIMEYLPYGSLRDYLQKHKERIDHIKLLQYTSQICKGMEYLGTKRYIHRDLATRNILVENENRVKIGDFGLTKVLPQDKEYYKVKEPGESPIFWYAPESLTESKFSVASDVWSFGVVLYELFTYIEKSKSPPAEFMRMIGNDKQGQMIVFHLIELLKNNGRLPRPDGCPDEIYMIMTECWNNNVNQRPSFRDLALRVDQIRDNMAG

HepG2 [5] = assay: Effect on JAK2 level in IL-6 stimulated human HepG2 cells at 50 uM treated for 6 hrs before IL-6 stimulation measured after 15 mins by Western blot analysis; assay type: functional, cell-based
HepG2 [6] = assay: Effect on STAT3 level in IL-6 stimulated human HepG2 cells at 50 uM treated for 6 hrs before IL-6 stimulation measured after 15 mins by Western blot analysis; assay type: functional, cell-based
[7] = molecular target: T1, Signal transducer and activator of transcription 3; assay: Inhibition of STAT3 phosphorylation at Tyr705 in IL-6 stimulated human HepG2 cells at 50 uM treated for 6 hrs before IL-6 stimulation measured after 15 mins by Western blot analysis; assay type: cell-based
MDA-MB-468 [8] = assay: Cytotoxicity against human MDA-MB-468 cells harboring constitutively harboring activated STAT3 assessed as inhibition of cell viability after 72 hrs by MTT assay; assay type: functional, cell-based; conditions: MDA-MB-468, 72 h
[9] = molecular target: T1, Signal transducer and activator of transcription 3; assay: Inhibition of STAT3 phosphorylation at Tyr705 in IL-6 stimulated human HepG2 cells treated for 6 hrs before IL-6 stimulation measured after 15 mins by Western blot analysis; assay type: cell-based
[10] = molecular target: T1, Signal transducer and activator of transcription 3; assay: Inhibition of STAT3 in IL-6-stimulated human HepG2 cells treated for 1 hr prior to IL-6 challenge measured after 5.5 hrs by luciferase reporter gene assay; assay type: cell-based

| SMILES | inhibition [1] [%] | inhibition at 10 µM (MDA-MB-468 [2]) [%] | other results |
| --- | --- | --- | --- |
| CCCCOc1ccc(C(=O)Nc2ccc3nc(SC(C)C(=O)Nc4c(C)cc(C)cc4C)sc3c2)cc1 (centres undefined) | 21.5 |  |  |
| C[C@H](NC(=O)CSc1nc2ccc(NC(=O)c3ccc(OCc4ccccc4)cc3)cc2s1)c1ccccc1 | 11.5 | 3.02 |  |
| CCc1cccc(CC)c1NC(=O)CSc1nc2ccc(NC(=O)C(C)C)cc2s1 | -8.31 | -17.4 |  |
| COc1ccc(C(=O)Nc2ccc3nc(SCC(=O)NCc4ccc(F)cc4)sc3c2)cc1 |  | 5.48 |  |
| CCCCOc1ccc(C(=O)Nc2ccc3nc(SCC(=O)N[C@@H](C)c4ccccc4)sc3c2)cc1 | 30.9 | 57.2 |  |
| COc1ccc(NCc2nnc(SCC(=O)Nc3cccc4ccccc34)n2-c2ccc(OC)cc2)cc1 | 24 |  |  |
| COc1ccc(C(=O)Nc2ccc3nc(SCC(=O)Nc4ccc(F)c(Cl)c4)sc3c2)cc1 |  | 2.47 |  |
| CCc1cccc(CC)c1NC(=O)CSc1nc2ccc(NC(=O)c3ccncc3)cc2s1 | 39.1 | 12.6 |  |
| CCCCCOc1ccc(C(=O)Nc2ccc3nc(SCC(=O)N[C@@H](C)c4ccccc4)sc3c2)cc1 | 30.7 | 61.1 |  |
| CCc1cccc(CC)c1NC(=O)CSc1nc2ccc(NC(=O)c3cccnc3)cc2s1 | 14.4 | 8.23 |  |
| CCc1cccc(CC)c1NC(=O)CSc1nc2ccc(NC(=O)C(C)Cl)cc2s1 (centres undefined) | -7.98 | -4.54 |  |
| COc1ccc(C(=O)Nc2ccc(C(=O)OCC(=O)c3cccc([N+](=O)[O-])c3)cc2)cc1OC | 38.5 |  | inhibition (Homo sapiens): -4.32%; inhibition [3]: 13.8% |
| O=C(CSc1nc2ccc(NC(=O)c3ccccc3)cc2s1)Nc1ccc(F)c(Cl)c1 |  | 9.04 |  |
| CCc1cccc(CC)c1NC(=O)CSc1nc2ccc(NC(=O)c3ccc(OC)cc3)cc2s1 |  | -0.77 |  |
| CCC(Sc1nc2ccc(NC(=O)c3ccc(OC)cc3)cc2s1)C(=O)Nc1ccc(Br)cc1 (centres undefined) | 34.8 | 66.4 | Activity [4]: inactive; Activity (HepG2 [5]): inactive; Activity (HepG2 [6]): inactive; inhibition [7]: Active; IC50 (MDA-MB-468 [8]): 8.83 µM; inhibition [3]: 6.17% |
| COc1ccccc1C(=O)Nc1ccc2nc(SCC(=O)Nc3c(C)cccc3C)sc2c1 | 21.5 | 39 |  |

| SMILES | inhibition [1] [%] | inhibition at 10 µM (MDA-MB-468 [2]) [%] | other results |
| --- | --- | --- | --- |
| CCc1cccc(CC)c1NC(=O)CSc1nc2ccc(NC(=O)c3ccc([N+](=O)[O-])cc3)cc2s1 | -5.71 | 6.13 |  |
| CCc1cccc(CC)c1NC(=O)CSc1nc2ccc(NC(=O)Cc3ccccc3OC)cc2s1 |  | -12.3 |  |
| COc1ccc(C(=O)Nc2ccc3nc(SCC(=O)N[C@H](C)c4ccccc4)sc3c2)cc1 | -0.31 | -56.8 |  |
| COc1ccc(C(=O)Nc2ccc3nc(SCC(=O)N[C@@H](C)c4ccccc4)sc3c2)cc1 | 43 | -44.7 |  |
| CCC(=O)Nc1ccc2nc(SCC(=O)Nc3c(CC)cccc3CC)sc2c1 | 2.36 | -12 |  |
| COc1ccc(C(=O)Nc2ccc3nc(SCC(=O)NCc4ccc([N+](=O)[O-])cc4)sc3c2)cc1 | 23.8 | -20.4 |  |
| CCc1cccc(CC)c1NC(=O)CSc1nc2ccc(NC(=O)C3CC3)cc2s1 | -9.23 | 32.4 |  |
| CCCC(C)Oc1ccc(C(=O)Nc2ccc3nc(SCC(=O)N[C@@H](C)c4ccccc4)sc3c2)cc1 (some centres undefined) | 51.1 | 51.4 | Activity [4]: inactive; Activity (HepG2 [5]): inactive; Activity (HepG2 [6]): inactive; inhibition [7]: Active; IC50 (MDA-MB-468 [8]): 16.1 µM |
| COc1ccc(C(=O)Nc2ccc3nc(SCC(=O)Nc4c(C)cccc4C)sc3c2)cc1 | -5.89 | 5.01 |  |
| CCCC(C)Oc1ccc(C(=O)Nc2ccc3nc(SCC(=O)Nc4c(CC)cccc4CC)sc3c2)cc1 (centres undefined) | 25.8 | 34.9 |  |
| CCCCCOc1ccc(C(=O)Nc2ccc3nc(SCC(=O)Nc4c(CC)cccc4CC)sc3c2)cc1 | 18.9 | 24.1 |  |
| CCCCOc1ccc(C(=O)Nc2ccc3nc(SCC(=O)Nc4c(CC)cccc4CC)sc3c2)cc1 | 49.5 |  |  |
| CCc1cccc(CC)c1NC(=O)CSc1nc2ccc(NC(=O)c3ccccc3OC)cc2s1 | 25.8 | 23.9 |  |
| CCc1cccc(CC)c1NC(=O)CSc1nc2ccc(NC(=O)c3ccc(OCc4ccccc4)cc3)cc2s1 | 22.6 | 44.6 |  |
| COc1cc(/C=C/C(=O)CC(=O)/C=C/c2ccc(O)c(OC)c2)ccc1O [CURCUMIN] | 30.7 | 3.88 | inhibition [9]: Dose-dependent effect; IC50 (MDA-MB-468 [8]): 196 µM; IC50 [10]: 19.2 µM |
